Test results reported in patent US9682060B2, “Small molecules that induce intrinsic pathway apoptosis” (The Board of Trustees of the University of Illinois, priority 2015, dated 2017).
“Also recorded” adds a separate entry of the source. Non-standard residues stand in square brackets, D forms with d. Residues, ends and D or L forms follow the SMILES beside them. *: point of attachment. Nle = CCCC[C@H](N)C(=O)O; Cbz = O=C(OCc1ccccc1)*; CH2Cl = ClC*

Legend:
Calpain/Cathepsin = settings: cited from earlier work
Granzyme B = Granzyme B (Homo sapiens, UniProt P10144); settings: cited from earlier work
U-937 cells = assay: Mitochondrial permeability transition pore (MPTP) calcein-cobalt assay; format: cell-based, Human; settings: calcein-cobalt quenching
Method: Mitochondrial Permeability Transition Pore (MPTP) Calcein-Cobalt Assay.
U-937 cells (1×10^6 cells/mL in HBSS) were loaded with calcein-AM (20 nM final concentration) for 45 minutes at 37° C. The cells were washed with HBSS and resuspended in RPMI and plated into a 24-well plate (1×10^6 cells in 1 mL). The cells were treated with Raptinal (10 μM) for 15, 30, 45, 60 and 90 minutes. Cobalt(II) chloride was added (10 μL of 80 mM stock in HBSS) to the cells 10 minutes prior to the end of the time points. The cells were pelleted and resuspended in HBSS (0.5 mL) and calcein fluorescence was measured by flow cytometry. As a positive control for MPTP, ionomycin and calcium were added to calcein-labeled cells in HBSS 10 minutes prior to analysis by flow cytometry.

[1] = system: isolated mitochondria (U-937 cells); assay: In vitro cytochrome c release from isolated mitochondria; format: biochemical, Human; settings: respiring and non-respiring conditions, 30 min, Western blot
Method: In Vitro Cytochrome c Release from Isolated Mitochondria.
U-937 cells (120×10^6) were washed twice in PBS and resuspended in 800 μL ice-cold lysis buffer (50 mM HEPES, 5 mM DTT, 5 mM PMSF, 25 mM MgCl2, protease cocktail inhibitor, pH 7.5) and the cells were passed through a 26 gauge needle 26 times using a 1 mL syringe until >95% cells were lysed as determined by trypan blue. Isolation buffer (0.25 M sucrose in lysis buffer pH 7.5) was added to the lysed cells (2.4 mL) and mixed by inversion. Debris was removed by centrifugation (500×g. 10 min at 4° C.) and the mitochondria in the supernatant were pelleted by centrifugation (10000×g, 5 min at 4° C.). The mitochondrial pellet was resuspended in washing buffer (2 mL of 50 mM HEPES, 250 mM KCl, 25 mM EDTA, pH 7.5) and incubated on ice for 2 min and centrifuged (12500×g, 5 min). The mitochondrial pellet was resuspended in either non-respiration (300 μL of 50 mM HEPES, 5 mM DTT, 5 mM PMSF, 25 mM MgCl2, protease inhibitor, 250 mM KCl, 25 mM EDTA, pH 7.5) or respiration buffer (300 μL of 50 mM HEPES, […], 5 mM ATP, 0.4 mM ADP, 25 mM sodium succinate, 10 mM potassium phosphate dibasic, pH 7.5). […]

Granzyme B, sequence (P10144 21-247, species assumed): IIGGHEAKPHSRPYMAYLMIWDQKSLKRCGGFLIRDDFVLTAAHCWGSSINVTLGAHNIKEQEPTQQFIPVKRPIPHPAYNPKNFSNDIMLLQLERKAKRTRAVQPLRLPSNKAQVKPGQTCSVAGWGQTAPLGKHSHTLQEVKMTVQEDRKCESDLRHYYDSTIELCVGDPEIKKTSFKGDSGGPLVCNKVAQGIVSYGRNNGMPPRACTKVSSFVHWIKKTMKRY

## CCCC[C@@H](C=O)NC(=O)[C@H](CC(C)C)NC(=O)[C@H](CC(C)C)NC(C)=O [Calpain/Cathepsin Inhibitor I] (Ac-Leu-Leu-[Nle]-aldehyde)
Calpain/Cathepsin
  Ki: 120 to 230 nM

## CC(NC(=O)OCc1ccccc1)C(=O)NC(C)C(=O)NC(CC(=O)O)C(=O)CCl (stereo not drawn) [Granzyme B Inhibitor I] (Cbz-Ala-Ala-Asp-CH2Cl; configuration not given here)
Granzyme B
  Ki: 300 nM

## C[C@H](CCC(=O)O)C[C@H](C)C[C@H](C)C(=O)/C=C(\O)[C@H](C)C[C@H](C)C/C=C/[C@@H](C)[C@@H](O)[C@@H](C)[C@@H](O)C[C@@H]1CC[C@@](C)([C@H]2CC[C@@](C)([C@@H](C)O)O2)O1 [lonomycin, ionomycin, reference compound]
U-937 cells
  mitochondrial permeability transition pore (MPTP) formation: able to induce MPTP

B1: Bid: known pro-apoptotic protein; full-length recombinant Bid from R&D Systems (protein, UniProt P55957 1-195, looked up)
chain: MDCEVNNGSSLRDECITNLLVFGFLQSCSDNSFRRELDALGHELPVLAPQWEGYDELQTDGNRSSHSRLGRIEADSESQEDIIRNIARHLAQVGDSMDRSIPPGLVNGLALQLRNTSRSEEDRNRDLATALEQLLQAYPRDMEKEKTMLVLALLLAKKVASHTPSLLRDVFHTTVNFINQNLRTYVRSLARNGMD
modifications: full-length
notes: known pro-apoptotic protein; full-length recombinant Bid from R&D Systems
[1]
  cytochrome c release from isolated mitochondria: able to induce cytochrome c release; also recorded: capable of releasing cytochrome c under both conditions
